Experimental data from patent US6288077A, “2,3-methano-amino acid compounds” (Adir et Compagnie, priority 1999, dated 2001).
Counter-ions that a name gives are not always drawn.

What was measured:
human thrombin = target: T1, human thrombin (Homo sapiens, UniProt P00734); test: Inhibition of human thrombin (fibrin formation from purified human fibrinogen); type: biochemical; conditions: human thrombin 0.7 nM, human fibrinogen 4 mM, pH 7.4, 20° C., 10 min preincubation
T1 construct: purchased Sigma
Experimental: Inhibition of Thrombin and of Fibrinolysis Serine Proteases […] The fibrin formed by the thrombin or by the paranitroanilide released by the action of the serine protease is measured spectrophotometrically at 405 nm after from 15 to 30 minutes' reaction at 20° C.

human plasma [1] = test: Thrombin time (TT) in human plasma, anti-coagulant activity; type: biochemical; conditions: human plasma deficient in platelets, 2 min incubation at 37° C., Prest Thrombin
Experimental: (§1) Anti-coagulant Activity, Measurement of Thrombin Time and Activated […] Man In order to evaluate the anti-coagulant activity of the compounds of the invention, the thrombin time (TT) and the activated cephalin time (ACT) were determined in human plasma samples. An ST4 coagulometer (Diagnostica Stago, France) was used. A lyophilised plasma, deficient in platelets (Stago), is taken up in distilled water. The TT is obtained using the reagent Prest Thrombin and the ACT using the reagent PTT Automate […]. […] The activity of an antagonist is evaluated by its capacity to prolong the TT and the ACT relative to the control. The effect of the inhibitors is expressed by the concentration in μM that doubles the coagulation time (Ctt2).

dog plasma [2] = test: Anti-coagulant activity after administration per os to the dog, thrombin time (TT); type: in vivo; conditions: oral
Experimental: (§2) Anti-coagulant Activity After Administration Per os to the Dog
(§3) Male or female dogs weighing 11-28 kg are treated by the oral route with the products of the invention (5 or 10 mg/kg). The coagulation times (TT, ACT) are determined in dog plasma samples 10 min. before and 30 min., 1 hour, 2 hours, 4 hours and 6 hours after administration of the products. The measurements of the coagulation times are carried out as described in Example 81.
(§4) Under the conditions of our experiments, the TT is of the order of 19 seconds and the ACT of the order of 18 seconds.
(§5) The Table 4 summarizes the results obtained.

human plasma [3] = test: Activated cephalin time (ACT) in human plasma, anti-coagulant activity; type: biochemical; conditions: human plasma deficient in platelets, 2 min incubation at 37° C., PTT Automate Cephalin
Experimental: as §1

dog plasma [4] = test: Anti-coagulant activity after administration per os to the dog, activated cephalin time (ACT); type: in vivo; conditions: oral
Experimental: as §2, §3, §4, §5

IC50 (human thrombin) [nM]	Structure (SMILES)	TT Ctt2 (concentration that doubles the coagulation time) (human plasma [1]) [µM]	TT increase (maximal; number of times by which the initial time is increased) (dog plasma [2]; 5 mg/kg) [times]	ACT Ctt2 (concentration that doubles the coagulation time) (human plasma [3]) [µM]	ACT increase (maximal; number of times by which the initial time is increased) (dog plasma [4]; 5 mg/kg) [times]	TT increase (maximal; number of times by which the initial time is increased) (dog plasma [2]; 10 mg/kg) [times]	ACT increase (maximal; number of times by which the initial time is increased) (dog plasma [4]; 10 mg/kg) [times]
4	Cl.Cl.N=C(N)c1ccc(CNC(=O)[C@]23C[C@H]2CCN3C(=O)[C@H](N)C(c2ccccc2)c2ccccc2)cc1 [Example 11, 1-[(2R)-3,3-Diphenylalanyl]-N-(4-amidinobenzyl)-(2S,3R)-2,3-methano-prolinamide dihydrochloride]	0.06	5.6	0.59	2.3		
28	N=C(N)c1ccc(CNC(=O)[C@]23C[C@H]2CCN3C(=O)[C@H](NCC(=O)O)C2CCCCC2)cc1 [Example 17, 1-[N-Carboxymethyl-(2R)-cyclohexylglycyl]-N-(4-amidinobenzyl)-(2S,3R)-2,3-methano-prolinamide hydrochloride]	0.11	16.0	0.86	3.7		
5.1	CCCCN[C@H](CC1CCCCC1)C(=O)N1CCC[C@@H]2C[C@@]21C(=O)NCc1ccc(N)nc1C.Cl.Cl [Example 31, 1-[N-Butyl-(2R)-3-cyclohexylalanyl]-N-[(6-amino-2-methyl-3-pyridyl)methyl]-(2S,3R)-2,3-methano-homoprolinamide dihydrochloride]	0.17		1.30			
8.8	Cc1nc(N)ccc1CNC(=O)[C@]12C[C@H]1CCCN2C(=O)[C@H](N)C(C1CCCCC1)C1CCCCC1 [Example 63, 1-[(2R)-3,3-Dicyclohexylalanyl]-N-[(6-amino-2-methyl-3-pyridyl)methyl]-(2S,3R)-2,3-methano-homoprolinamide dihydrochloride]						
1	N=C(N)c1ccc(CNC(=O)[C@]23C[C@H]2CCN3C(=O)[C@H](NS(=O)(=O)Cc2ccccc2)C2CCCCC2)cc1 [Example 16, 1-[N-Benzylsulphonyl-(2R)-cyclohexylglycyl]-N-(4-amidinobenzyl)-(2S,3R)-2,3-methano-prolinamide hydrochloride]	0.09		0.42			
2	CCOC(=O)CN[C@H](CC1CCCCC1)C(=O)N1CCC[C@@H]2C[C@@]21C(=O)NCc1ccc(C(=N)N)cc1.Cl.Cl [Example 25, 1-[N-Ethoxycarbonylmethyl-(2R)-3-cyclohexylalanyl]-N-(4-amidinobenzyl)-(2S,3R)-2,3-methano-homoprolinamide dihydrochloride]	0.08		0.45			
7.1	Cc1nc(N)ccc1CNC(=O)[C@]12C[C@H]1CCCN2C(=O)[C@@H](CC1CCCCC1)NCC(=O)O.Cl.Cl [Example 32, 1-[N-Carboxymethyl-(2R)-3-cyclohexylalanyl]-N-[(6-amino-2-methyl-3-pyridyl)methyl]-(2S,3R)-2,3-methano-homoprolinamide dihydrochloride]	0.12		1.09			
5.3	Cl.N=C(N)c1ccc(CNC(=O)[C@]23C[C@H]2CCN3C(=O)[C@@H](CC2CCCCC2)NCC(=O)O)cc1 [Example 3, 1-[N-Carboxymethyl-(2R)-3-cyclohexylalanyl]-N-(4-amidinobenzyl)-(2S,3R)-2,3-methano-prolinamide hydrochloride]	0.06	8.4	0.56	2.1		
5.1	CCOC(=O)CN[C@H](CC1CCCCC1)C(=O)N1CCC[C@@H]2C[C@@]21C(=O)NCc1ccc(N)nc1C.Cl.Cl [Example 33, 1-[N-Ethoxycarbonylmethyl-(2R)-3-cyclohexylalanyl]-N-[(6-amino-2-methyl-3-pyridyl)methyl]-(2S,3R)-2,3-methano-homoprolinamide dihydrochloride]	0.11	7.1	1.10	1.5		
6	Cl.N=C(N)c1ccc(CNC(=O)[C@]23C[C@H]2CCN3C(=O)[C@@H](Cc2ccccc2)NS(=O)(=O)Cc2ccccc2)cc1 [Example 9, 1-[N-Benzylsulphonyl-(2R)-3-phenylalanyl]-N-(4-amidinobenzyl)-(2S,3R)-2,3-methano-prolinamide hydrochloride]	0.20		0.86			
7.9	Cl.Cl.N=C(N)c1ccc(CNC(=O)[C@]23C[C@H]2CCN3C(=O)[C@H](N)CC2CCCCC2)cc1 [Example 2, 1-[(2R)-3-Cyclohexylalanyl]-N-(4-amidinobenzyl)-(2S,3R)-2,3-methano-prolinamide dihydrochloride]	0.07	3.8	0.52	1.4		
1	Cl.Cl.N=C(N)c1ccc(CNC(=O)[C@]23C[C@H]2CCCN3C(=O)[C@H](N)C(c2ccccc2)c2ccccc2)cc1 [Example 61, 1-[(2R)-3,3-Diphenylalanyl]-N-(4-amidinobenzyl)-(2S,3R)-2,3-methano-homoprolinamide dihydrochloride]	0.05	14.2	0.47	2.0		
26	Cc1nc(N)ccc1CNC(=O)[C@]12C[C@H]1CCCN2C(=O)[C@H](N)CC1CCCCC1.Cl.Cl [Example 28, 1-[(2R)-3-Cyclohexylalanyl]-N-[(6-amino-2-methyl-3-pyridyl)methyl]-(2S,3R)-2,3-methano-homoprolinamide dihydrochloride]	0.31		2.30		6.2	1.8
44	CN[C@H](CC1CCCCC1)C(=O)N1CCC[C@@H]2C[C@@]21C(=O)NCc1ccc(N)nc1C.Cl.Cl [Example 29, 1-[N-Methyl-(2R)-3-cyclohexylalanyl]-N-[(6-amino-2-methyl-3-pyridyl)methyl]-(2S,3R)-2,3-methano-homoprolinamide dihydrochloride]	0.46		2.80		6.2	1.7
1.2	Cl.Cl.N=C(N)c1ccc(CNC(=O)[C@]23C[C@H]2CCN3C(=O)[C@H](N)C(C2CCCCC2)C2CCCCC2)cc1 [Example 13, 1-[(2R)-3,3-Dicyclohexylalanyl]-N-(4-amidinobenzyl)-(2S,3R)-2,3-methano-prolinamide dihydrochloride]	0.18		2.30			
1	Cl.N=C(N)c1ccc(CNC(=O)[C@]23C[C@H]2CCN3C(=O)[C@H](NCC(=O)O)C(C2CCCCC2)C2CCCCC2)cc1 [Example 14, 1-[N-Carboxymethyl-(2R)-3,3-dicyclohexylalanyl]-N-(4-amidinobenzyl)-(2S,3R)-2,3-methano-prolinamide hydrochloride]	0.19		2.20			
2.3	Cl.N=C(N)c1ccc(CNC(=O)[C@]23C[C@H]2CCCN3C(=O)[C@@H](CC2CCCCC2)NCC(=O)O)cc1 [Example 24, 1-[N-Carboxymethyl-(2R)-3-cyclohexylalanyl]-N-(4-amidinobenzyl)-(2S,3R)-2,3-methano-homoprolinamide hydrochloride]	0.03	6.7	0.58	1.2		
